Experimental data published in patent US10588317B2, “Isoxazoline-substituted benzamides and analogues as insecticides” (priority 2015, dated 2020).

Legend:
Assay type in all cases: in vivo
Thrips tabaci = Thrips tabaci (onion thrips): feeding/contact activity; conditions: 144 h, application rate 200 ppm, Thrips population of mixed ages, 6 days after infestation, read-out: mortality
Procedure: Sunflower leaf discs were placed on agar in 24-well microtiter plates and sprayed with aqueous test solutions prepared from 10'000 ppm DMSO stock solutions. After drying the leaf discs were infested with a Thrips population of mixed ages. The samples were assessed for mortality 6 days after infestation.

Tetranychus urticae = Tetranychus urticae (two-spotted spider mite): feeding/contact activity; conditions: 192 h, application rate 200 ppm, mixed population (mobile stages), 8 days after infestation, read-out: mortality
Procedure: Bean leaf discs on agar in 24-well microtiter plates were sprayed with aqueous test solutions prepared from 10'000 ppm DMSO stock solutions. After drying the leaf discs were infested with a mite population of mixed ages. The samples were assessed for mortality on mixed population (mobile stages) 8 days after infestation.

Spodoptera littoralis [1] = experiment: Spodoptera littoralis (Egyptian cotton leaf worm), uptake by lettuce roots from agar; conditions: 144 h, read-out: effect in at least one of the three categories (mortality, anti-feeding, or growth inhibition)
Description: Test compounds were applied by pipette from 10'000 ppm DMSO stock solutions into 24-well plates and mixed with agar. Lettuce seeds were placed onto the agar and the multi well plate was closed by another plate which contained also agar. After 7 days the compound was absorbed by the roots and the lettuce grew into the lid plate. The lettuce leaves were then cut off into the lid plate. Spodoptera eggs were pipetted through a plastic stencil onto a humid gel blotting paper and the lid plate was closed with it. The samples were assessed for mortality, anti-feedant effect and growth inhibition in comparison to untreated samples 6 days after infestation.
The following compounds gave an effect of at least 80% in at least one of the three categories (mortality, anti-feeding, or growth inhibition) at a test rate of 12.5 ppm: […]

Diabrotica balteata = Diabrotica balteata (corn root worm), sprayed maize sprouts; conditions: 96 h, application rate 200 ppm, L2 larvae, 4 days after infestation, read-out: effect in at least one of the two categories (mortality or growth inhibition)
Summary of the method: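 Read-out at 4 days post-infestation: mortality and growth inhibition relative to untreated samples. Test solutions (200 ppm, from DMSO stocks) were sprayed onto agar-held maize sprouts, which after drying received 6–10 L2 larvae per well.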

Spodoptera littoralis [2] = experiment: Spodoptera littoralis (Egyptian cotton leaf worm), sprayed cotton leaf discs; conditions: foliar, 72 h, application rate 200 ppm, L1 larvae, 3 days after infestation, read-out: control (mortality, anti-feeding effect, growth inhibition)
Summary of the method: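 Five first-instar larvae placed on dried cotton leaf discs (on agar) previously sprayed with aqueous dilutions of 10'000 ppm DMSO stocks. Scored at 3 days against untreated discs for mortality, feeding inhibition and growth inhibition; any category above untreated counts as control.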

Euschistus heros = Euschistus heros (neotropical brown stink bug), sprayed soybean leaves; conditions: 120 h, application rate 200 ppm, N2 nymphs, 5 days after infestation, read-out: effect in at least one of the two categories (mortality or growth inhibition)
Summary of the method: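 Scored 5 days post-infestation versus untreated controls, for both mortality and growth inhibition: N2 nymphs placed on agar-mounted soybean leaves previously sprayed at 200 ppm with aqueous test solutions from DMSO stocks and left to dry.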

Plutella xylostella = Plutella xylostella (diamond back moth), artificial diet; conditions: 120 h, application rate 200 ppm, L2 larvae, 5 days after infestation, read-out: effect in at least one of the two categories (mortality or growth inhibition)
Summary of the method: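 L2 larvae (10-15 per well) fed on compound-treated, dried artificial diet; test solutions diluted in water from 10'000 ppm DMSO stocks. Readout 5 days post-infestation as mortality or growth inhibition versus untreated diet, with at least 80% effect at 200 ppm as threshold.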

Myzus persicae = Myzus persicae (green peach aphid): feeding/contact activity; conditions: 144 h, application rate 200 ppm, aphid population of mixed ages, 6 days after infestation, read-out: mortality
Procedure: Sunflower leaf discs were placed onto agar in a 24-well microtiter plate and sprayed with aqueous test solutions prepared from 10'000 ppm DMSO stock solutions. After drying, the leaf discs were infested with an aphid population of mixed ages. The samples were assessed for mortality 6 days after infestation.

C=Cc1cc(C2=NOC(c3cc(Cl)cc(Cl)c3)(C(F)(F)F)C2)ccc1C(=O)NC1CON(S(C)(=O)=O)C1 (stereo not shown) [Compound A65]
≥ 80%: mortality at 200 ppm (Thrips tabaci) | mortality at 200 ppm (Tetranychus urticae) | percent control (mortality, anti-feedant effect or growth inhibition) at 12.5 ppm (Spodoptera littoralis [1]) | percent effect (mortality or growth inhibition) at 200 ppm (Diabrotica balteata) | mortality at 200 ppm (Spodoptera littoralis [2]) | percent effect (mortality or growth inhibition) at 200 ppm (Euschistus heros) | percent effect (mortality or growth inhibition) at 200 ppm (Plutella xylostella) | mortality at 200 ppm (Myzus persicae)

CCS(=O)(=O)N1C[C@@H](NC(=O)c2ccc(C3=NO[C@@](c4cc(Cl)c(F)c(Cl)c4)(C(F)(F)F)C3)cc2C)CO1 [Compound A119]
≥ 80%: mortality at 200 ppm (Thrips tabaci) | mortality at 200 ppm (Tetranychus urticae) | percent control (mortality, anti-feedant effect or growth inhibition) at 12.5 ppm (Spodoptera littoralis [1]) | percent effect (mortality or growth inhibition) at 200 ppm (Diabrotica balteata) | mortality at 200 ppm (Spodoptera littoralis [2]) | percent effect (mortality or growth inhibition) at 200 ppm (Euschistus heros) | percent effect (mortality or growth inhibition) at 200 ppm (Plutella xylostella) | mortality at 200 ppm (Myzus persicae)

CCNS(=O)(=O)N1C[C@@H](NC(=O)c2ccc(C3=NO[C@@](c4cc(Cl)cc(Cl)c4)(C(F)(F)F)C3)cc2Cl)CO1 [Compound A113, 2-chloro-4-[(5S)-5-(3,5-dichlorophenyl)-5-(trifluoromethyl)-4H-isoxazol-3-yl]-N-[(4R)-2-(ethylsulfamoyl)isoxazolidin-4-yl]benzamide]
≥ 80%: mortality at 200 ppm (Thrips tabaci) | mortality at 200 ppm (Tetranychus urticae) | percent control (mortality, anti-feedant effect or growth inhibition) at 12.5 ppm (Spodoptera littoralis [1]) | percent effect (mortality or growth inhibition) at 200 ppm (Diabrotica balteata) | mortality at 200 ppm (Spodoptera littoralis [2]) | percent effect (mortality or growth inhibition) at 200 ppm (Euschistus heros) | percent effect (mortality or growth inhibition) at 200 ppm (Plutella xylostella) | mortality at 200 ppm (Myzus persicae)

CCN(CC)S(=O)(=O)N1CC(NC(=O)c2ccc(C3=NO[C@@](c4cc(Cl)c(F)c(Cl)c4)(C(F)(F)F)C3)cc2C)CO1 (stereo partly drawn) [Compound A98, 4-[(5S)-5-(3,5-dichloro-4-fluoro-phenyl)-5-(trifluoromethyl)-4H-isoxazol-3-yl]-N-[2-(diethylsulfamoyl)isoxazolidin-4-yl]-2-methyl-benzamide]
≥ 80%: mortality at 200 ppm (Thrips tabaci) | mortality at 200 ppm (Tetranychus urticae) | percent control (mortality, anti-feedant effect or growth inhibition) at 12.5 ppm (Spodoptera littoralis [1]) | percent effect (mortality or growth inhibition) at 200 ppm (Diabrotica balteata) | mortality at 200 ppm (Spodoptera littoralis [2]) | percent effect (mortality or growth inhibition) at 200 ppm (Euschistus heros) | percent effect (mortality or growth inhibition) at 200 ppm (Plutella xylostella) | mortality at 200 ppm (Myzus persicae)

Cc1cc(C2=NOC(c3cc(Cl)c(Br)c(Cl)c3)(C(F)(F)F)C2)ccc1C(=O)NC1CON(S(C)(=O)=O)C1 (stereo not shown) [Compound A45]
≥ 80%: mortality at 200 ppm (Thrips tabaci) | mortality at 200 ppm (Tetranychus urticae) | percent control (mortality, anti-feedant effect or growth inhibition) at 12.5 ppm (Spodoptera littoralis [1]) | percent effect (mortality or growth inhibition) at 200 ppm (Diabrotica balteata) | mortality at 200 ppm (Spodoptera littoralis [2]) | percent effect (mortality or growth inhibition) at 200 ppm (Euschistus heros) | percent effect (mortality or growth inhibition) at 200 ppm (Plutella xylostella) | mortality at 200 ppm (Myzus persicae)

CCS(=O)(=O)N1C[C@@H](NC(=O)c2ccc(C3=NO[C@@](c4cc(Cl)c(Cl)c(Cl)c4)(C(F)(F)F)C3)cc2C)CO1 [Compound A118]
≥ 80%: mortality at 200 ppm (Thrips tabaci) | mortality at 200 ppm (Tetranychus urticae) | percent control (mortality, anti-feedant effect or growth inhibition) at 12.5 ppm (Spodoptera littoralis [1]) | percent effect (mortality or growth inhibition) at 200 ppm (Diabrotica balteata) | mortality at 200 ppm (Spodoptera littoralis [2]) | percent effect (mortality or growth inhibition) at 200 ppm (Euschistus heros) | percent effect (mortality or growth inhibition) at 200 ppm (Plutella xylostella) | mortality at 200 ppm (Myzus persicae)

CCNS(=O)(=O)N1C[C@@H](NC(=O)c2ccc(C3=NO[C@@](c4cc(Cl)cc(C(F)(F)F)c4)(C(F)(F)F)C3)cc2C)CO1 [Compound A134]
≥ 80%: mortality at 200 ppm (Thrips tabaci) | mortality at 200 ppm (Tetranychus urticae) | percent control (mortality, anti-feedant effect or growth inhibition) at 12.5 ppm (Spodoptera littoralis [1]) | percent effect (mortality or growth inhibition) at 200 ppm (Diabrotica balteata) | mortality at 200 ppm (Spodoptera littoralis [2]) | percent effect (mortality or growth inhibition) at 200 ppm (Euschistus heros) | percent effect (mortality or growth inhibition) at 200 ppm (Plutella xylostella) | mortality at 200 ppm (Myzus persicae)

CCNS(=O)(=O)N1C[C@@H](NC(=O)c2ccc(C3=NO[C@@](c4cc(Cl)cc(Cl)c4)(C(F)(F)F)C3)cc2C)CO1 [Compound A135, 4-[(5S)-5-(3,5-dichlorophenyl)-5-(trifluoromethyl)-4H-isoxazol-3-yl]-N-[(4R)-2-(ethylsulfamoyl)isoxazolidin-4-yl]-2-methyl-benzamide]
≥ 80%: mortality at 200 ppm (Thrips tabaci) | mortality at 200 ppm (Tetranychus urticae) | percent control (mortality, anti-feedant effect or growth inhibition) at 12.5 ppm (Spodoptera littoralis [1]) | percent effect (mortality or growth inhibition) at 200 ppm (Diabrotica balteata) | mortality at 200 ppm (Spodoptera littoralis [2]) | percent effect (mortality or growth inhibition) at 200 ppm (Euschistus heros) | percent effect (mortality or growth inhibition) at 200 ppm (Plutella xylostella) | mortality at 200 ppm (Myzus persicae)

CNS(=O)(=O)N1C[C@@H](NC(=O)c2ccc(C3=NO[C@@](c4cc(Cl)c(F)c(Cl)c4)(C(F)(F)F)C3)cc2C)CO1 [Compound A137, 4-[(5S)-5-(3,5-dichloro-4-fluoro-phenyl)-5-(trifluoromethyl)-4H-isoxazol-3-yl]-2-methyl-N-[(4R)-2-(methylsulfamoyl)isoxazolidin-4-yl]benzamide]
≥ 80%: mortality at 200 ppm (Thrips tabaci) | mortality at 200 ppm (Tetranychus urticae) | percent control (mortality, anti-feedant effect or growth inhibition) at 12.5 ppm (Spodoptera littoralis [1]) | percent effect (mortality or growth inhibition) at 200 ppm (Diabrotica balteata) | mortality at 200 ppm (Spodoptera littoralis [2]) | percent effect (mortality or growth inhibition) at 200 ppm (Euschistus heros) | percent effect (mortality or growth inhibition) at 200 ppm (Plutella xylostella) | mortality at 200 ppm (Myzus persicae)

CCS(=O)(=O)N1CC(NC(=O)c2ccc(C3=NO[C@@](c4cc(Cl)c(F)c(Cl)c4)(C(F)(F)F)C3)cc2Br)CO1 (stereo partly drawn) [Compound A44, 2-bromo-4-[(5S)-5-(3,5-dichloro-4-fluoro-phenyl)-5-(trifluoromethyl)-4H-isoxazol-3-yl]-N-(2-ethylsulfonylisoxazolidin-4-yl)benzamide]
≥ 80%: mortality at 200 ppm (Thrips tabaci) | mortality at 200 ppm (Tetranychus urticae) | percent control (mortality, anti-feedant effect or growth inhibition) at 12.5 ppm (Spodoptera littoralis [1]) | percent effect (mortality or growth inhibition) at 200 ppm (Diabrotica balteata) | mortality at 200 ppm (Spodoptera littoralis [2]) | percent effect (mortality or growth inhibition) at 200 ppm (Euschistus heros) | percent effect (mortality or growth inhibition) at 200 ppm (Plutella xylostella) | mortality at 200 ppm (Myzus persicae)

Cc1cc(C2=NO[C@@](c3cccc(C(F)(F)F)c3)(C(F)(F)F)C2)ccc1C(=O)N[C@H]1CON(S(C)(=O)=O)C1 [Compound A159]
≥ 80%: mortality at 200 ppm (Thrips tabaci) | mortality at 200 ppm (Tetranychus urticae) | percent effect (mortality, anti-feeding or growth inhibition) at 12.5 ppm (Spodoptera littoralis [1]; test rate 12.5 ppm, eggs, 6 days after infestation) | percent effect (mortality or growth inhibition) at 200 ppm (Diabrotica balteata) | mortality at 200 ppm (Spodoptera littoralis [2]) | percent effect (mortality or growth inhibition) at 200 ppm (Euschistus heros) | percent effect (mortality or growth inhibition) at 200 ppm (Plutella xylostella) | mortality at 200 ppm (Myzus persicae)
